{
  "source": "patent US20170226139A1",
  "about": "“CRYSTALLINE SALTS OF (Z)-O-OCTADEC-9-EN-1-YL O,O-DIHYDROGEN PHOSPHOROTHIOATE” (priority 2013, published 2017)",
  "key": {"[1]": {"experiment": "Qualitative solubility of Rx100.L-Lysine salt in 13 additional solvents", "type": "physicochemical", "details": "for Observation (qualitative solubility): ~50 mg solid", "excerpt": "The solubility of Rx100.L-Lysine salt was further tested in 13 additional solvents."}, "[2]": {"experiment": "Short term (24 hour) slurry tests, XRPD of wet and dried solids", "type": "physicochemical", "details": "minimum 24 hours, 15 solvent systems, 25 and 50° C., wet and dried solids", "method": "Second, short term slurry tests were performed. Rx100.L-Lysine salt was slurried for a minimum of 24 hours in 15 different solvent systems at two different temperatures (25 and 50° C.) in an attempt to provide information for crystallization experiments and design of polymorph screening experiments. A 48 position Chemglass reaction block was used for heating and stirring the slurries which were in 2 mL HPLC vials. After the due time, vials were centrifuged and the wet solids were used for X-ray diffraction. […]"}},
  "data": [
    {"smiles": "CCCCCCCC/C=C\\CCCCCCCCOP(O)(O)=S", "note": "[Rx100.L-Lysine, (Z)—O-octadec-9-en-1-yl O,O-dihydrogen phosphorothioate]", "values": [
      {"measurement": "Observation (qualitative solubility)", "setting": "[1]; Acetone:water (1:1), 0.5 mL added", "result": "dissolved"},
      {"measurement": "Observation (qualitative solubility)", "setting": "[1]; Acetone, 0.75 mL added", "result": "slurry"},
      {"measurement": "Observation (qualitative solubility)", "setting": "[1]; EtOH:water (1:1), 0.75 mL added", "result": "dissolved"},
      {"measurement": "Observation (qualitative solubility)", "setting": "[1]; EtOH:water (8:2), 0.75 mL added", "result": "cloudy"},
      {"measurement": "Observation (qualitative solubility)", "setting": "[1]; EtOH, 0.75 mL added", "result": "slurry"},
      {"measurement": "Qualitative solubility", "setting": "[1]; IPA-water (1:1)", "result": "soluble"},
      {"measurement": "Observation (qualitative solubility)", "setting": "[1]; IPA:water (1:1), 0.75 mL added", "result": "dissolved"},
      {"measurement": "Observation (qualitative solubility)", "setting": "[1]; IPA:water (8:2), 0.75 mL added", "result": "oil"},
      {"measurement": "Observation (qualitative solubility)", "setting": "[1]; IPA, 0.75 mL added", "result": "slurry"},
      {"measurement": "Observation (qualitative solubility)", "setting": "[1]; MeOH:water (1:1), 0.5 mL added", "result": "dissolved"},
      {"measurement": "Observation (qualitative solubility)", "setting": "[1]; MeOH:water (8:2), 0.75 mL added", "result": "dissolved"},
      {"measurement": "Observation (qualitative solubility)", "setting": "[1]; MeOH, 0.75 mL added", "result": "slurry"},
      {"measurement": "Observation (qualitative solubility)", "setting": "[1]; THF:water (1:1), 0.5 mL added", "result": "oil"},
      {"measurement": "Observation (qualitative solubility)", "setting": "[1]; THF, 0.75 mL added", "result": "slurry"},
      {"measurement": "Qualitative solubility", "setting": "[1]; acetone:water (1:1)", "result": "soluble"},
      {"measurement": "Qualitative solubility", "setting": "[1]; ethanol:water (1:1)", "result": "soluble"},
      {"measurement": "Qualitative solubility", "setting": "[1]; methanol:water (1:1)", "result": "soluble"},
      {"measurement": "Qualitative solubility", "setting": "[1]; methanol:water (8:2)", "result": "soluble"},
      {"measurement": "Form by XRPD after short term slurry", "setting": "[2]; listed as Rx100.L-Lysine salt", "result": "no change in form"},
      {"measurement": "Form by XRPD after short term slurry", "setting": "[2]; listed as Rx100 crystalline sesqui-L-lysine salt", "result": "do not change in form"}
    ]}
  ]
}
